According to US6653342B2, “13-substituted milbemycin derivatives, their preparation and their use against insects and other pests” (Sankyo Company, Limited, priority 2000, dated 2003):
“And” between values parts separate entries of the source, which are not always exact repeats. Identical values can stand only once.

What was measured:
[1] = system: Perforating Scabies (Sarcoptes scabiei); test: Test on effect against perforating scabies, naturally infected cat (Test Example 7); format: in vivo
Procedure: (§1) Dogs and cats naturally infected with scabies were provided for the test. […] This was administered at a rate of 5 mg/kg body weight to a test animal in its poll region. The epidermis was scraped off the test animal from its ears and limbs before administration and then three weeks after administration of the test compound. The epidermis thus obtained was then charged in a 10% potassium hydroxide solution and the number of worm bodies and eggs was observed microscopically.

[2] = system: hookworms (Ancylostoma caninum); test: Test on effect against hookworms in naturally infected dogs (Test Example 5); format: in vivo; details: dogs naturally infected with hookworm, one line per dog
Procedure: (§2) For each of these three parasites, the number of eggs per gram (EPG) of dog faeces excreted was measured before, and 7 to 9 days after, administration of the test compound. The number of worms excreted in the faeces of the dog (WEF) between administration of the test compound and the end of the test was measured. Upon completion of the test, each of the test dogs was subjected to post mortem to count the number of surviving worms in the digestive tract (SWDT).

[3] = system: Perforating Scabies (Sarcoptes scabiei); test: Test on effect against perforating scabies, naturally infected dog (Test Example 7); format: in vivo
Procedure: as §1

microfilariae (mf) = test: Test on activity against microfilariae in culture with or without neutrophils (Test Example 8); details: 37° C., 5% CO2, compared to broth containing mf only
[4] = system: roundworms (Toxocara canis); test: Test on effect against roundworms in naturally infected dogs (Test Example 4); format: in vivo; details: dogs naturally infected with roundworm, one line per dog
Procedure: as §2

cat fleas [5] = test: whole plant or invertebrate; format: in vivo; details: 1 ppm in bovine serum sucked through Parafilm at 37° C.; dead fleas after 48 hours; 20 fleas per group; corrected by control group
Procedure: A test container wherein the living space of fleas was isolated from bovine serum by use of Parafilm™ (obtainable from Aldrich Chemical Co. Ltd.), which is usually used as an artificial skin, was prepared. A compound to be tested was added to the bovine serum in an amount sufficient for its concentration to be 1 ppm, and the fleas were allowed to suck the serum sample through the Parafilm™ at 37° C. Each group consisted of 20 fleas. […] By counting the dead fleas in a control group without a test compound, the mortality was corrected.

[6] = system: Southern root-knot nematode; test: Test on insecticidal effect against Southern root-knot nematode, cucumber on agar plate (Test Example 10); format: in vivo; details: 1000 ppm solution on filter paper disks
Procedure: An agar plate (80 ml: containing 1.25 ppm of kanamycin, 1.25 ppm of streptomycin and 0.8585 ppm of penicillin) was prepared in a container (70×70×20 mm). The plate was planted with a cucumber in the cotyledon stage of development. […] One of the thus-treated paper disks was put into the agar plate and two further treated paper disks were laid over the cotyledon.
After treatment, the container was covered with an acrylic plate to prevent water evaporation. Four days later, about 2.5 ml of a suspension containing 500 second-stage larvae of Southern root-knot nematode were added dropwise to the agar plate. Ten days after addition of the larvae, the number of galls of nematodes was estimated. Each test was conducted at a temperature of 25° C. and a humidity of 65%. “Untreated” in this test is a control in which water was used to soak the filter paper instead of the test compound solution.
The following criteria were used to judge the results obtained:
0: equal to the treatment-free group (51 to 150 galls)
1: slightly less than the treatment-free group (36 to 50 galls)
2: less than the treatment-free group (21 to 35 galls)
3: markedly less than the treatment-free group (0 to 20 galls)

[7] = system: whipworms (Trichuris vulpis); test: Test on effect against whipworms in naturally infected dogs (Test Example 6); format: in vivo; details: dogs naturally infected with whipworm, one line per dog
Procedure: as §2

cat fleas [8] = test: Test on elimination of fleas from dogs (Test Examples 2 and 3); format: in vivo, Ctenocephalides felis; details: beagles
Procedure: Beagles provided for the test were infected with cat fleas prior to the commencement of the test. The number of fleas collected from the surface of the body of the dog three days after infection was counted and an infection ratio, calculated as the ratio of the fleas counted three days after infection to the initial number used to infect the dog, was determined for each dog.
The resulting test solution was administered dropwise to the interscapular region of each of four test beagles (4 to 7 months old) at a dose of 5 mg/kg body weight. On Day 7, Day 21 and Day 28 after administration of the test compound, each dog was infected with 100 cat fleas. The number of fleas collected from the surface of the bodies of the dogs three days after infection was counted. The number of fleas obtained before and after administration was determined to give an elimination ratio.
Thus, even 28 days after administration of the test compound, the elimination ratio was 100%.

[9] = 5 mg/kg to poll region, epidermis scraped from ears and limbs, counted microscopically
[10] = 5 mg/kg dropwise to poll region

CCC1OC2(CCC1C)CC1CC(CC=C(C)C(OC(=O)C3(c4ccc(NC(=O)COC)cc4)CCCC3)C(C)C=CC=C3COC4C(O)C(C)=CC(C(=O)O1)C34O)O2 (stereo not drawn) [Example 1(c), 13-[1-(4-Methoxyacetylaminophenyl)cyclopentanecarbonyloxy]-5-hydroxy-milbemycin A4]
After administration (three weeks later) Egg [1, 9]: 0
After administration (three weeks later) Worm body [1, 9]: 0
effects against scabies ([1]; 5 mg/kg, after three weeks): 100%
oviposition preventing effects ([1]; 5 mg/kg, after three weeks): 100%
EPG after 7-9 Days [2, 10]: 0 eggs per gram
Elimination ratio (%) ([2]; 5 mg/kg dropwise): 100%
SWDT (number of surviving worms in the digestive tract) ([2]; 5 mg/kg dropwise, post mortem): 0
After administration (three weeks later) Egg [3, 9]: 0
After administration (three weeks later) Worm body [3, 9]: 9
oviposition of scabies ([3]; 5 mg/kg, after three weeks): prevented completely
Percentage reduction of microfilariae (microfilariae (mf); mf + neutrophils + test compound (100 ng/ml)): 53.8%
Percentage reduction of microfilariae (microfilariae (mf); mf + test compound (100 ng/ml), no neutrophils): 0.02%
EPG after 7-9 Days ([4]; 5 mg/kg dropwise to poll region, eggs per gram of faeces): 0 eggs per gram
WEF (number of worms excreted in the faeces) ([4]; 5 mg/kg dropwise, between administration and end of test, 5 mg/kg): 3 and 5 and 8
Elimination ratio (%) ([4]; 5 mg/kg dropwise): 100%
SWDT (number of surviving worms in the digestive tract) ([4]; 5 mg/kg dropwise, post mortem): 0
Mortality (%) (cat fleas [5]): 90.2%
Effect (result) ([6]; graded by number of galls ten days after addition of larvae): 3 (markedly less than the treatment-free group (0 to 20 galls))
Number of galls ([6]; ten days after addition of 500 second-stage larvae, 25° C., humidity 65%): 6
EPG after 7-9 Days [7, 10]: 0 eggs per gram
Elimination ratio (%) ([7]; 5 mg/kg dropwise): 100%
SWDT (number of surviving worms in the digestive tract) ([7]; 5 mg/kg dropwise, post mortem): 0
elimination ratio (cat fleas [8]; 5 mg/kg body weight dropwise to interscapular region (10% w/v solution), infected with 100 cat fleas 28 days after administration, counted three days after infection): 100%
number of fleas collected from the surfaces of the bodies of the dogs three days after infection (cat fleas [8]; 5 mg/kg dropwise, infection with 100 cat fleas on each of Day 7, Day 21 and Day 28 after administration): no fleas were collected
